Experimental data published in patent US8871288B2, “Aromatic neomenthylamides as flavoring substances” (Symrise AG, priority 2007, dated 2014).

Columns and labels:
[1] = Flavor impression of the individual compounds; assay type: in vivo; settings: tasting of the compound as such
[2] = cited from earlier work; for sensorial impression: prior art (US 2004/0202760, US 2004/0202619, US 2006/057268, 2006/068071); for effect in the oral cavity: known naturally occurring alkamides
[3] = Panel tasting, green tea drink (Application Example 11); assay type: in vivo; settings: 0.004% by weight of a 1% solution in propylene glycol in green tea drink, sterilized at 118° C.
Protocol: The green tea concentrate is mixed with a 1% solution of a 1:1 mixture of the compounds (3)+(4) in propylene glycol. Afterwards, demineralized water is poured in and the mixture is again thoroughly stirred. Then the product is filtered, packed ready for consumption and sterilized at 118° C.

[4] = Flavor comparison in American beef bouillon base with MSG, panel of trained testers (FIG. 1); assay type: in vivo; settings: 5 ppm of 1:1 mixture in American beef bouillon base vs base with 0.05% by weight MSG
Protocol: This is also shown by the spider diagram which is appended as FIG. 1 and in which an American beef bouillon as a base is compared (i) to a base of the type to which 5 ppm of a 1:1 mixture of benzo[1,3]dioxol-5-carboxylic acid ((1S,2S,5R)-2-isopropyl-5-methylcyclohexyl)amide (3) and benzo[1,3]dioxol-5-carboxylic acid ((1R,2R,5S)-2-isopropyl-5-methylcyclohexyl)amide (4) are added and (ii) to a base of the type to which 0.05% by weight of MSG (sodium glutamate) is added.
The flavor of a 0.5% American beef extract as a base (solid, light line) was compared, based on a tasting performed by a panel of trained testers, with the flavor firstly of a base of this type to which 5 ppm of a mixture of benzo[1,3]dioxol-5-carboxylic acid ((1S,2S,5R)-2-isopropyl-5-methylcyclohexyl)amide (3) and benzo[1,3]dioxol-5-carboxylic acid ((1R,2R,5S)-2-isopropyl-5-methylcyclohexyl)amide (4) were added (solid, dark line), and secondly of a base of this type to which 0.05% by weight of MSG was added (dotted line).
The testers judged the […] of the specified types of flavor in each case by awarding scores on a scale of from 0 (no corresponding flavor) to 6 (very strong corresponding flavor). The average values of the respective scores are shown.

| Molecule | flavor impression [1] | sensorial impression [2] | other results |
| --- | --- | --- | --- |
| COC(=O)c1ccc(C(=O)N[C@H]2C[C@H](C)CC[C@H]2C(C)C)cc1 [(1), N-((1S,2S,5R)-2-isopropyl-5-methylcyclohexyl)terephthalic acid methyl ester] | umami flavor without very bitter accompanying notes |  |  |
| COC(=O)c1ccc(C(=O)N[C@@H]2C[C@@H](C)CC[C@@H]2C(C)C)cc1 [(2), N-((1R,2R,5S)-2-isopropyl-5-methylcyclohexyl)terephthalic acid methyl ester] | umami flavor without very bitter accompanying notes |  |  |
| CC(C)[C@@H]1CC[C@@H](C)C[C@@H]1NC(=O)c1ccc2c(c1)OCO2 [(3), benzo[1,3]dioxol-5-carboxylic acid ((1S,2S,5R)-2-isopropyl-5-methylcyclohexyl)amide] | very strong umami flavor |  |  |
| CC(C)[C@H]1CC[C@H](C)C[C@H]1NC(=O)c1ccc2c(c1)OCO2 [(4), benzo[1,3]dioxol-5-carboxylic acid ((1R,2R,5S)-2-isopropyl-5-methylcyclohexyl)amide] | very strong umami flavor |  |  |
| CC(C)[C@@H]1CC[C@@H](C)C[C@@H]1NC(=O)Cc1ccc2c(c1)OCO2 [(5), 2-benzo[1,3]dioxol-5-yl-N-((1S,2S,5R)-2-isopropyl-5-methylcyclohexyl)acetamide] | in addition to an umami flavor, a slightly salty note |  |  |
| CC(C)[C@H]1CC[C@H](C)C[C@H]1NC(=O)Cc1ccc2c(c1)OCO2 [(6), 2-benzo[1,3]dioxol-5-yl-N-((1R,2R,5S)-2-isopropyl-5-methylcyclohexyl)acetamide] | in addition to an umami flavor, a slightly salty note |  |  |
| CC(C)=CCCC(C)=CCNC(=O)C1CC1 [N-3,7-dimethyl-2,6-octadienyl cyclopropylcarboxamide] |  | salt and umami intensifier |  |
| CC/C=C\CC/C=C/C(=O)NC1CC1 [N-cyclopropyl-E2,Z6-nonadienamide] |  | MSG-like effect |  |
| CCCCC/C=C\CC/C=C/C(=O)NCC [N-ethyl-E2,Z6-dodecadienamide] |  | MSG-like effect |  |
| CC/C=C\CC/C=C/C(=O)NCC [N-ethyl-E2,Z6-nonadienamide] |  | MSG-like effect |  |
| CCCCC/C=C/C=C/C(=O)NCC(C)C [pellitorine] |  |  | effect in the oral cavity [2]: a salivatory and tingling effect, a long-lasting and numbing effect in the oral cavity |
| C/C=C/C=C\CC/C=C/C(=O)NCC(C)C [spilanthol] |  |  | effect in the oral cavity [2]: a salivatory and tingling effect, a long-lasting and numbing effect in the oral cavity |
| Benzo[1,3]dioxole-5-carboxylic acid((1S,2S,5R)-2-isopropyl-5-methylcyclohexyl)amide (3)/benzo[1,3]dioxole-5-carboxylic acid((1R,2R,5S)-2-isopropyl-5-methylcyclohexyl)amide (4) [1:1 mixture of the compounds (3)+(4)] |  |  | taste compared to the non-aromatized green tea base [3]: clearly preferable; flavor compared to other umami-tasting compounds and to sodium glutamate (MSG) [4]: clear umami flavor which is very similar to sodium glutamate (MSG) |
